# From patent US9221761B2, “Method for inhibition of deubiquitinating activity” (Vivolux AB, priority 2011, dated 2015)
# Experiments:
# 19S RP = target: T1, 19S RP (Homo sapiens, UniProt P54578+Q9Y5K5); experiment: Ubiquitin-cleavage assay (Ub-GFP, ubiquitinated Hdm2); type: biochemical; details: 19S RP 25 nM, 50 μM compound, 10 min
# T1 construct: purchased Boston Biochem E-366
# Procedure: Recombinant ubiquitin-GFP is a substrate for 19S RP DUB activity (15). […] The type of ubiquitin bonds present in the polyubiquitin chain determines the fate of an ubiquitin-modified substrate.
# Ubiquitin-cleavage assay. The recombinant Ub-GFP plasmid pet19b Ub-M-GFP is generated as described (30). In brief recombinant Ub-GFP is purified from BL21 E. coli cells by His affinity purification. For cleavage assays 19S RP (25 nM) is incubated with 10 mM NEM, 250 μM TPEN or 50 μM of the compound of the invention for 10 min followed by the addition of recombinant Ub-GFP (200 nM). Ubiquitin chain disassembly reactions are performed essentially as above except K48- or K63-linked ubiquitin tetramers (50 ng) are substituted for Ub-GFP. The level of Ub-GFP cleavage or ubiquitin disassembly is determined by immunoblotting with anti ubiquitin antibodies. The ubiquitinated Hdm2 substrate is generated according to the Boston Biochem protocol (K-200). For the cleavage assay 19S RP (25 nM) is incubated with 50 μM of the compound of the invention or DMSO for 10 min followed by the addition of ubiquitinated Hdm2 substrate (100 nM). The cleavage of ubiquitinated Hdm2 substrate and ubiquitinated Hdm2 is determined by immunoblotting with anti-Hdm2 antibodies.
# [1] = test system: HCT116 colon cancer cells; experiment: Apoptosis in isogenic clones of HCT116 colon cancer cells; type: cell-based
# Source text: The increase in sub G1 DNA, caspase-3 activation and cleavage of poly-ADP ribose polymerase (PARP) and cytokeratin is associated with an overall decrease in cell viability at drug concentrations that induce the accumulation of polyubiquitin connecting UPS inhibition and apoptosis. Apoptosis induction by bortezomib is sensitive to the status of the p53 tumor suppressor and over-expression of the anti-apoptotic Bcl-2 oncoprotein (11, 12). […] Cell culture. MCF7 cells are maintained in MEM/10% fetal calf serum. HCT-116 p53+/+, p53−/−, Bcl-2+/+, PUMA−/− and BAX−/− cells are maintained in McCoy's 5A modified medium/10% fetal calf serum. The HCT-116 p53+/+, p53−/−, PUMA−/− and BAX−/− are generated as described (25). The HCT-116 Bcl-2+/+ cell line was generated by transfecting parental HCT-116 p53+/+ cells with pCEP4 Bcl-2 (Addgene plasmid 16461) (26) and isolating high expression clones. FaDu and LLC3 cells are maintained in DMEM high glucose medium supplemented with 10% fetal calf serum, Na pyruvate, Hepes and non-essential amino acids. 4T1.12B carcinoma cells are maintained in RPMI medium supplemented with 10% fetal calf serum. The proteasome reporter cell line MelJuSo Ub-YFP was generated as described (12). […] Cell viability is determined by measuring acid phosphatase activity or using the FMCA method (32). […] Absorbance is measured at 405 nm. […]
# HCT-116 cells = experiment: Cell cycle arrest and DNA damage markers; type: cell-based
compound,measurement,setting,value
C=CC(=O)N1C/C(=C\c2ccc([N+](=O)[O-])cc2)C(=O)/C(=C/c2ccc([N+](=O)[O-])cc2)C1 [b-AP15],cleavage of Ub-GFP and ubiquitinated HDM2 by 19S RP,19S RP,efficiently inhibited
same,"sensitivity of induced apoptosis to over-expression of Bcl-2 and disruption of p52, BAX or PUMA",[1],insensitive
same,"genotoxicity (DNA damage markers phosphorylated p53 Ser 15, H2AX Ser 139)",HCT-116 cells,not a genotoxic agent
